pEC50, pKd: −log10 of the molar value.
What was measured:
Human Astrocytes = test: Cholesterol efflux (apoE4 lipidation) assay, BODIPY-cholesterol translocation to apoE4; type: cell-based; settings: Astrocyte, Human astrocytes, efflux to apoE4; for pEC50: Table 4
Method: Cholesterol efflux assay in HTS. CCF-STTG1 cells were plated in 384-well plates containing 50 μL/well RPMI supplemented with 10% FBS at a density of 5×10^3 cells/well, using a Multidrop 384 Reagent Dispenser (Thermo Scientific), and incubated for 48 hr. Cells were washed twice with 50 μl PBS using an EL406 Microplate Washer Dispenser (BioTek, Winooski, Vt., USA) before being labeled with 50 μl of 10 μM BODIPY-cholesterol+100 μM cyclodextrin (CD) in RPMI 1640 medium containing 0.2% BSA. The labeling medium was added using in a Washer Dispenser II (GNF, San Diego, Calif., USA). Plates were transferred automatically to a Liconic incubator (Mauren Principality of Liechtenstein) and incubated for 24 h. Subsequently, cells were washed twice as described above to remove external cholesterol. Next, 50 μl of the efflux medium was added, which contained recombinant apoE4 at a concentration of 40 μg/ml in transparent RPMI 1640 (no phenol red), again using Washer Dispenser II (GNF, San Diego, Calif., USA). The positive control contained the ABCA1 activator, CS-6253 (120 μg/ml) in addition to the acceptor (apoE4). After 7 hr of efflux, the medium was transferred to new plates, using the Bravo Automated Liquid Handling system (Agilent, Santa Clara, Calif., USA). Fluorescence polarization (FP) and fluorescence intensity (FI) of the medium were measured in a PheraStar FS plate reader (BMG Labtech, Ortenberg, Germany).
The apoE4 lipidation Assay is based on measurements of the ability of astrocytes to translocate fluorescently labelled cholesterol to recombinant non lipidated apoE4 and on the extent to which this effect is enhanced by treatment with each of the screened compounds (FIG. 2, 3). This assay is an adaptation of previous studies of cholesterol translocation from labelled astrocytes to external acceptors such as apoE4 [16], except that in order to differentiate between gene expression related effects and direct biochemical effects of the hits on ABCA1, the incubations of the HTS with the cells was limited to 8 hours. The extent to which the cells secret the labelled cholesterol and transfer it to non-lipidated apoE4 was determined by regular fluorescence as well as by fluorescence polarization microscopy. The latter technique in this context is used due to its sensitivity to particle size which decreases the background signal by differentiating between free and particle bound released cholesterol.
The assay was characterized biochemically and it was shown that translocation of labelled cholesterol to apoE4 is time and concentration dependent (FIG. 4) and was increased by the positive control ABCA1 agonistic 26mer peptide CS-6253 [4] (FIG. 5). The assay was used for high throughput screening (HTS) and selection of positive hits. 50,000 compounds from commercially available libraries were screened utilizing the double criteria of a signal greater than 3 standard deviations from the mean of all of the screened compounds, and being similar or greater than the apoE4 lipidation driven by the ABCA1 agonistic peptide CS-6253. Additional criteria included the tier drug ability value with tier 1 being best and tier 3 being least suitable, as well as a hydrophobicity value of 2<log P<5 value. This yielded 14 hits, designated Compounds #1-#14 (FIG. 6).

Rodent Astrocytes = test: In situ Aβ plaque digestion by apoE4 astrocytes (orthogonal assay); type: cell-based
Method: FIG. 7: Schematic representation of assay measuring in situ A$ plaque degradation by apoE3 and apoE4 astrocytes. The assay is designed to measure the ability of astrocytes to digest senile plaques from brain slides of APP mice, which is impaired in apoE4 expressing astrocytes.
FIG. 9: Activity of test compounds (HTS hits) in the plaque digestion assay. Positive control is CS-6253 (25 μg/ml). Test compound concentration is 50 μM.
In situ Aβ plaque degradation by apoE3 and apoE4 astrocytes. This assay is based on measurement of the ability of the astrocytes to clear Aβ plaques following their co-incubation with brain sections of 5×FAD mice, which contain Aβ plaques. Accordingly, 20 μm coronal frozen brain sections were prepared from 9-13-month-old 5×FAD mice using cryostat and placed on glass slides, 3-4 consecutive sections in each slide. The slides were kept at −80° C. until used. At the beginning of the experiment, the slices were incubated for 48 hr at 37° C. with apoE3 and apoE4 astrocytes (10^5 cells in 100 μl medium per slice) in the presence of 50 μM, or otherwise indicated concentrations, of the HTS hits. The slides were gently placed in round petri dishes with thick wet paper, surrounding the slides. PapPen was used to draw liquid repellent borders of the sections to avoid spillage of coating out of the slides. The slides were gently washed of all containing remains by placing them in PBS for 10 minutes, and were then fixated with 4% PFA for 10 minutes, followed by 0.1% Triton solution for 10 minutes. The slides were then incubated with blocking solution (8% Horse Serum, 0.3% Triton, 1 gr/ml BSA, 0.02% Sodium Azide in PBS) for 30 minutes after which they were immunohistochemically stained with primary anti-PAmyloid (6E10) antibody at a dilution of 1:750 in blocking solution for 1 hr at room temperature. This was then followed by washing (×5 with PBST) and incubation with the secondary antibody (Alexa Fluor® 488 donkey α-mouse IgG, A-21202 at dilution of 1:250 at room temperature for 45 minutes. Nuclei were stained with DAPI (Vektashield, Burlingame, Calif.; H-1200). Analysis of the Aβ plaque burden was performed as percentage of the area covered in plaques using the ImageJ software.
(i) Orthogonal assay which monitors the extent to which the hits can reverse the impaired ability of apoE4 astrocytes to digest Aβ senile plaques in vitro. The principle of this orthogonal assay is presented in FIGS. 7 & 8 [17], whereas the activity of the HTS hits in this assay is presented in FIG. 9.

[1] = tested on: apoE4 astrocytic cell line; test: Cellular viability / cytotoxicity of the hits; type: cell-based, Rodent; settings: 50 μM
Method: FIG. 10: Effects of test compounds (HTS hits) on cellular viability. Experiments were performed on apoE4 astrocytic cell line in the presence of 50 μM of the indicated compounds. Viability was measured microscopically and by measurements of total cellular protein. (ii) Measurements of cytotoxicity of the hits.

apoE4 TR mice = test: Intraventricular Alzet pump administration to apoE4 TR mice, 11 days; type: in vivo; settings: intraventricular pump 11 days, vs ACSF
Method: These experiments utilized the Alzet osmotic pump to administer labeled compounds #10 and N1 into the ventricles of apoE4 TR mice. The Alzet pumps administered 0.25 μl/hr of the compounds for 11 days. The reagents concentrations were […] for compounds #10 and N1, respectively, reaching estimated concentrations of 200 μM and 250 μM in the CSF. As control groups, apoE3 and apoE4 mice injected with artificial cerebrospinal fluid were used. Four groups, each containing 5 mice were used in the experiments. The total SDS levels in the different groups were measured. […] FIG. 16 depicts the results of the high molecular weight complexes indicating the increase in the apoE4 treated with compounds #10 and N1.
High AT180 corresponds to hyperphosphorylated tau which is pathological.

ECD1 of ABCA1 = target: T1, ECD1 of ABCA1 (Homo sapiens, UniProt O95477); test: Microscale thermophoresis (MST) binding, label free protein; settings: unlabelled ECD1
T1 construct: The proteins used in these experiments were Extra-Cellular Domain 1 (ECD1) of ABCA1 and Extra-Cellular Domain 2 (ECD2); purchased Biomatick
T1 sequence (O95477 43-639 limits assumed): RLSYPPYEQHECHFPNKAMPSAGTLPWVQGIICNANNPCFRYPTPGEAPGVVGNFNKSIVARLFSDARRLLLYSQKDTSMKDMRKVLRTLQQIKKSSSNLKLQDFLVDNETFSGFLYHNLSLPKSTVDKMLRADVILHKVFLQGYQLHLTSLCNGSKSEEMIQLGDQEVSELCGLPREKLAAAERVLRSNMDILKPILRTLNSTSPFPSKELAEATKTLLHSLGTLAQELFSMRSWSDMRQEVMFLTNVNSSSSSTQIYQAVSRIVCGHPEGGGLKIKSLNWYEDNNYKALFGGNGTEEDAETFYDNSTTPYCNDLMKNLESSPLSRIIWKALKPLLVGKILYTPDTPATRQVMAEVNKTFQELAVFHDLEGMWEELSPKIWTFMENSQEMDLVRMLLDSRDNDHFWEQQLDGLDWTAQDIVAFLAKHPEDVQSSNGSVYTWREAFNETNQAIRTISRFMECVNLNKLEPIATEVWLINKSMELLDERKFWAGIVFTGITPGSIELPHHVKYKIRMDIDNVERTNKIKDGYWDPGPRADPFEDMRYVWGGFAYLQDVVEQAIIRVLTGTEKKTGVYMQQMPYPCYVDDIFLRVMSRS
Method: Microscale thermophoresis (MST) measurements. MST measurements of the binding of the HTS hits to the extracellular domain (ECD) of ABCA1 were performed by two complimentary methods utilizing either fluorescently labeled proteins or the endogenous fluorescence of unlabeled proteins. This was pursued as follows:
The experiments were performed with the purified extracellual domains 1 (ECD1) and 2 (ECD2) of ABCA1 [18]. Two complementary MST tests were performed, in which either the proteins were labeled with a fluorescence moiety or the endogenous fluorescence of the unlabeled proteins was monitored).

Binding to ECD1 (Label free MST) Amplitude (ECD1 of ABCA1) [a.u.]	pKd (ECD1 of ABCA1)	SMILES	EC50 (Human Astrocytes; Table 2) [µM]	pEC50 (Human Astrocytes)	Plaque digestion assay (50 μM) Rodent Astrocytes (Rodent Astrocytes; Table 2) [%]	Plaque digestion assay (50 μM) Rodent Astrocytes (Rodent Astrocytes; Table 4) [%]	Viability Rodent Astrocytes ([1]; Table 2)	Viability Rodent Astrocytes ([1]; Table 4)	Hippocampal phosphorylated tau (AT180) (apoE4 TR mice)	Levels of high molecular weight lipidated ApoE4 (native gels) (apoE4 TR mice)	Total hippocampal ApoE4 levels (total SDS levels) (apoE4 TR mice)
–	–	Cc1cc(C)c(/C=C2\C(=O)Nc3ccccc32)[nH]1 [Hit #10]	> 44.8	< 4.35	182	182	Normal	Normal	reversed the pathology	increase	reversed the effect
24.15	4.23	Clc1cc(N2CCOCC2)c2nonc2c1 [Hit #99]	–	< 4.35	–	–	–	–	–	–	–
–	–	O=C(O)CSc1cc(Cl)c2nonc2c1[N+](=O)[O-] [Hit N1]	–	–	–	–	–	–	reversed the pathology	increase	reversed the effect
